How the values were obtained:
Plasmodium falciparum [1] = assay: NOVARTIS: Inhibition of Plasmodium falciparum 3D7 (drug-susceptible) proliferation in erythrocyte-based infection assay; type: functional, organism-based; conditions: Plasmodium falciparum, 3D7
Plasmodium falciparum [2] = assay: NOVARTIS: Inhibition of Plasmodium falciparum W2 (drug-resistant) proliferation in erythrocyte-based infection assay; type: functional, organism-based; conditions: Plasmodium falciparum, W2; read-out: EC50
[3] = NOVARTIS: Cytotoxicity against human hepatocellular carcinoma cell line (Huh7); type: toxicity, cell-based, Huh-7; conditions: Huh7 cells (hepatocellular carcinoma cell line)

Structure (SMILES)	EC50 (Plasmodium falciparum [1])	EC50 (Plasmodium falciparum [2])	CC50 [3]
COc1ccc2c(c1)[nH]c1c(N3CCN(C(c4ccccc4)c4ccccc4)CC3)ncnc12	339 nM	435 nM	16300 nM
Oc1ccccc1-c1nc2ncccn2c1Nc1cccc(C(F)(F)F)c1	2120 nM	1020 nM	> 100000 nM
CCOc1c(Br)cc(C2C(C(=O)OC)=CN(C)C=C2C(=O)OC)cc1OC	292 nM	263 nM	> 100000 nM
CC12CCC(CN(CC(O)Cn3c4ccc(Br)cc4c4cc(Br)ccc43)C1)C2(C)C (centres undefined)	2960 nM	2200 nM	> 100000 nM
COC(=O)C1=CNC=C(C(=O)OC)C1c1ccc(Cl)c([N+](=O)[O-])c1	135 nM	165 nM	> 100000 nM
CCOC(=O)c1c[nH]c2c(CC)cccc2c1=O	1660 nM	2650 nM	> 100000 nM
CCN(CC)C(=O)N1CCN(c2ccc(Nc3ccnc4cc5ccccc5cc34)cc2)CC1	961 nM	2470 nM	> 100000 nM
Cc1cc(I)ccc1N1C(=O)C2C3c4ccccc4C(CO)(c4ccccc43)C2C1=O (centres undefined)	> 11200 nM	> 10100 nM	> 67900 nM
CCOC(=O)c1cnc2ccccc2c1NCCCN(C)C	198 nM	222 nM	52100 nM
O=C(Nc1ccccc1Cl)NC1(C(=O)NCC2CCCO2)CCCCC1 (centres undefined)	> 984 nM	> 1250 nM	> 10000 nM
Cc1cc(N2CCCC2)nc2ccc(NC(=S)NCCN3CCc4ccccc4C3)cc12	44 nM	629 nM	21500 nM
O=C(CN1C(=O)C2C3CCC(C3)C2C1=O)N1CCCC(c2ncncc2-c2ccncc2)C1 (centres undefined)	246 nM	> 1250 nM	> 10000 nM
CCN1CCCC1CNc1[nH]cnc2c3cc(F)ccc3nc1-2 (centres undefined)	808 nM	1260 nM	22400 nM
O=C1c2ccccc2C2=Nc3ccccc3SC(c3cccc(F)c3)C12 (centres undefined)	86.7 nM	135 nM	30300 nM
O=C1CCC(CCNCc2ccc(Cl)cc2)N1CC1(N2CCCCC2)CCCC1 (centres undefined)	> 1250 nM	632 nM	> 10000 nM
COc1ccc(C2C(C(C)=O)=C(O)C(=O)N2CCCn2ccnc2)c(OC)c1 (centres undefined)	4480 nM	1110 nM	> 100000 nM
Cc1ccc(NC2=C(c3ccc(C(F)(F)F)cc3)C(=O)c3ccccc32)cc1F	541 nM	790 nM	> 100000 nM
CC(c1nc2ccccc2c(=O)n1-c1ccc(Br)cc1)N1CCN(S(=O)(=O)c2ccc3ccccc3c2)C(C)C1 (centres undefined)	> 1250 nM	434 nM	> 10000 nM
COc1cc(-c2nc(-c3cccc(Cl)c3)c(-c3ccccc3)[nH]2)cc(OC)c1O	583 nM	749 nM	43200 nM
CCCCCCN(C(=O)c1ccc2ccccc2c1)C(CC)c1nc2ccccc2c(=O)n1-c1ccc(F)cc1 (centres undefined)	454 nM	548 nM	> 10000 nM
CCCOC(=O)C1=C(C)NC2=C(C(=O)CC(c3ccc(OC)c(OC)c3)C2)C1c1ccc(Br)cc1 (centres undefined)	37.7 nM	46.9 nM	> 100000 nM
O[Si](CCCN1CCCCC1)(c1ccccc1)C1CCCCC1 (centres undefined)	23.6 nM	12.1 nM	33000 nM
COc1cc(NC(=O)Cn2ccc3ccc([N+](=O)[O-])cc32)cc(OC)c1OC	439 nM	319 nM	> 10000 nM

Structure (SMILES)	EC50 (Plasmodium falciparum [1])	EC50 (Plasmodium falciparum [2])	CC50 [3]
CC1(C)CC(=O)C2=C(C1)Nc1ccccc1N(C(=O)Cc1ccccc1)C2c1ccc([N+](=O)[O-])s1 (centres undefined)	> 1250 nM	89.8 nM	> 10000 nM
COc1cc(CN2CCN(c3ccccn3)CC2)cc(I)c1O	> 9900 nM	4890 nM	> 100000 nM
COc1ccc(CCNC(=O)Cn2c(C)cc3ccccc3c2=O)cc1OC	> 1540 nM	796 nM	> 10000 nM
CCCCCCN(C(=O)COCc1ccccc1)C(CC)c1nc2ccccc2c(=O)n1-c1ccc(F)c(Cl)c1 (centres undefined)	607 nM	821 nM	> 10000 nM
Cc1oc2c(c1C(=O)NCC1CCCO1)C(=O)c1ccccc1C2=O (centres undefined)	1180 nM	481 nM	6930 nM
c1cn2c(-c3ccc(N4CCOCC4)cc3)cnc2c(NCc2ccc3c(c2)OCO3)n1	> 927 nM	> 1250 nM	> 10000 nM
CCN(CC)CCN1C(=O)c2ccc3c4c(ccc(c24)C1=O)C(=O)N(CCN(CC)CC)C3=O	244 nM	136 nM	221 nM
CC(C)(C)c1ccc(Oc2ccc(N3C(=O)C4CC=CCC4C3=O)cc2)cc1 (centres undefined)	> 1250 nM	> 1020 nM	> 10000 nM
O=C(CCC1CCCN(C(=O)c2ccsc2)C1)N1CCN(c2ccccn2)CC1 (centres undefined)	> 1250 nM	> 1100 nM	> 10000 nM
CCN1CCN(CC(O)COc2ccc(OC)cc2)CC1 (centres undefined)	2810 nM	> 9190 nM	> 100000 nM
Cc1c(-c2ccc(Cl)cc2)[n+]2c(n1-c1ccccc1)SCCC2	1150 nM	1040 nM	> 100000 nM
COc1ccc(Nc2ncnc3[nH]c(-c4cccc([N+](=O)[O-])c4)cc23)cc1	2490 nM	2500 nM	> 100000 nM
CN(C)c1ccc(N=Cc2ccc(N3CCOCC3)cc2)cc1	175 nM	235 nM	> 10000 nM
CCC(c1nc2ccccc2c(=O)n1-c1cccc(C)c1)N(CCc1ccccc1)C(=O)Nc1c(C(C)C)cccc1C(C)C (centres undefined)	1070 nM	1100 nM	> 8510 nM
COc1cccc2c1C(=O)C1C(O)=C3C(=C(O)C1C2=O)CC(O)(C(C)=NN=C1CC(C)(C)N(O)C(C)(C)C1)CC3OC1CC(C)(N)C(O)CO1 (centres undefined)	416 nM	337 nM	> 10000 nM
CS(=O)(=O)c1cnc2ncnn2c1C1CCCN(C(=O)c2ccccn2)C1 (centres undefined)	311 nM	> 1250 nM	> 10000 nM
COc1ccc(CN2CC(=O)N(c3ccc(Cl)cc3)C2=S)cc1OC	> 1180 nM	> 1250 nM	> 10000 nM
O=C(Nc1ccon1)c1cc(-c2cccnc2)nc2ccc(Br)cc12	1970 nM	2510 nM	> 81000 nM
CCOC(=O)c1c(C)[nH]c(C)c1S(=O)(=O)N1CCCC(C(=O)N2CCN(c3cc(C)ccc3C)CC2)C1 (centres undefined)	231 nM	367 nM	> 82300 nM
COc1ccc(/C=C2\SC(=O)NC2=Nc2ccccc2)c(OC)c1	1100 nM	1010 nM	> 10000 nM
CC[n+]1c(/C=C/N(C)c2ccccc2)sc(-c2ccccc2)c1-c1ccccc1	1100 nM	638 nM	> 10000 nM
c1ccc(-c2nc3cc4ccccc4cc3nc2-c2ccsc2)cc1	3440 nM	2830 nM	> 100000 nM
Oc1ccc(-c2ccnc3cc(Cl)ccc23)cc1CNCCCn1ccnc1	167 nM	403 nM	> 10000 nM

Structure (SMILES)	EC50 (Plasmodium falciparum [1])	EC50 (Plasmodium falciparum [2])	CC50 [3]
CCOC(=O)c1sc(NC(=O)CSc2nnc(CNC(=O)COc3ccccc3)n2C)c(C(=O)OCC)c1C	> 1080 nM	> 1250 nM	> 10000 nM
CN(Cc1cc(-c2ccccc2)ccc1O)CC(O)c1ccccc1 (centres undefined)	438 nM	18.1 nM	> 10000 nM
CCCN1CCC(N2C[C@@H](NC3CCN(CCc4ccccc4)CC3)C[C@H]2C(=O)NCCc2ccc3c(c2)OCO3)CC1	86.8 nM	792 nM	11100 nM
CC1=C(CC(=O)c2ccccc2)C(=O)c2ccccc2C1=O	2660 nM	300 nM	13800 nM
CC(C)(C)c1csc(NC(=O)c2ccc(S(=O)(=O)N3CCCCC3)cc2)n1	> 12500 nM	175 nM	49100 nM
COc1nc(Nc2ccc(C(C)C)cc2)nc(OC)n1	677 nM	935 nM	56900 nM
O=C(/C=C/c1c[nH]cn1)N1CCC(n2c(CC3CCCC3)nc3cccnc32)CC1	> 1670 nM	28.7 nM	> 10000 nM
COc1ccccc1NC(=O)N(CCC(C)C)C(C)c1nc2ccccc2c(=O)n1-c1ccccc1Cl (centres undefined)	817 nM	< 25.8 nM	> 10000 nM
CC(C)(C)Cc1ccc(OCCCC(=O)Nc2ccc(Cl)c(N)c2)c(CC(C)(C)C)c1	1730 nM	848 nM	> 100000 nM
O=C(Nc1ccc2c(c1)CN(C1CCSCC1)CC2)C1(c2ccccc2)CC1	> 12500 nM	> 5530 nM	> 100000 nM
Cc1ccc(NC(=O)C2CSC(c3cccc(F)c3)N2C(=O)c2ccc(C(C)(C)C)cc2)cc1C (centres undefined)	604 nM	8 nM	848 nM
CCCCCc1ccc(C(=O)Oc2ccccc2-c2nc3cc(C)ccn3c2NC(C)(C)CC(C)(C)C)cc1	739 nM	93.4 nM	> 10000 nM
COc1ccc(-n2nc(C(=O)NCC(=O)NCCCN3CCOCC3)c3ccccc3c2=O)cc1Cl	1260 nM	> 1250 nM	> 10000 nM
CC[n+]1c(/C=C/c2ccc(C)cc2)ccc2ccccc21	97.4 nM	119 nM	> 10000 nM
COCCOC(=O)C1=C(C)NC2=C(C(=O)CC(c3ccc(OC)cc3)C2)C1c1ccc(Cl)cc1 (centres undefined)	167 nM	33.2 nM	> 100000 nM
Cc1cc(Nc2ccc(Cl)c(C)c2)n2nc(C)nc2n1	983 nM	1000 nM	> 100000 nM
CCC(c1ccc(F)cc1)n1cc(C(=O)NCCCN2CCC(C)CC2)nn1 (centres undefined)	> 651 nM	> 1640 nM	> 10000 nM
O=C1OC(c2ccccc2)=NC1=C(Cl)Cl	> 1160 nM	> 1250 nM	> 10000 nM
O=C1CC(c2cccc([N+](=O)[O-])c2)c2cc3c(cc2N1)OCO3 (centres undefined)	> 10200 nM	> 11800 nM	> 100000 nM
COc1ccc(OCC(O)CNC2CCN(CC(O)COc3ccc(Cl)c(Cl)c3)CC2)cc1 (centres undefined)	328 nM	524 nM	9140 nM
C[N+]1(CC(=O)NNc2c3ccccc3nc3ccccc23)CCOCC1	637 nM	364 nM	> 100000 nM
C#CC(C)(C)NC(=O)c1ccc(-c2ccc(CC)cc2)cc1	3030 nM	1970 nM	> 100000 nM

Reference: ChEMBL document CHEMBL1156829 (Proc Natl Acad Sci U S A, 2008)
